# Source: ChEMBL document CHEMBL1201862, “PubChem BioAssay data set” (2004)
# Activity calls are given as the source filed them.
# How the values were obtained:
# [1] = target: Serine/threonine-protein phosphatase PP1-alpha catalytic subunit (Homo sapiens, UniProt P62136); assay: inhibition of protein phosphatase 1 activity – biochemical, fluorescence, dose response (AID 2403);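 further: phosphatase turnover of OMFP into fluorescent 3-O-methylfluorescein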
# [2] = Trypanosoma cruzi growth suppression in host cells – NIH3T3 host cells, beta-gal luminescence, confirmation (AID 2044); format: functional, cell-based;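 further: intracellular parasites grown in NIH/3T3 mouse fibroblasts as host cells; luminescent beta-galactosidase reporter signal from transgenic T. cruzi replicating inside host cells; inhibitors lower the luminescence signal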
# [3] = NIH3T3 cell viability loss – ATP luminescence, mouse fibroblasts, counter-screen, dose response (AID 2010); format: functional, cell-based;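 further: cells exposed to compound for about 90 hours before reading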
# [4] = target: T1, Serine/threonine-protein phosphatase (Homo sapiens, UniProt Q9BPW0); assay: Counterscreen for inhibitors of PP1: fluorescence-based biochemical high throughput dose response assay to identify inhibitors of Protein Phosphatase 5 (PP5). [Related pubchem assays: 2034 (Summary (PP5 inhibitors)), 1987 (PP5 inhibitors in singlate), 2235 (PP1 inhibitors in singlate)]
# T1 sequence (Q9BPW0 whole entry): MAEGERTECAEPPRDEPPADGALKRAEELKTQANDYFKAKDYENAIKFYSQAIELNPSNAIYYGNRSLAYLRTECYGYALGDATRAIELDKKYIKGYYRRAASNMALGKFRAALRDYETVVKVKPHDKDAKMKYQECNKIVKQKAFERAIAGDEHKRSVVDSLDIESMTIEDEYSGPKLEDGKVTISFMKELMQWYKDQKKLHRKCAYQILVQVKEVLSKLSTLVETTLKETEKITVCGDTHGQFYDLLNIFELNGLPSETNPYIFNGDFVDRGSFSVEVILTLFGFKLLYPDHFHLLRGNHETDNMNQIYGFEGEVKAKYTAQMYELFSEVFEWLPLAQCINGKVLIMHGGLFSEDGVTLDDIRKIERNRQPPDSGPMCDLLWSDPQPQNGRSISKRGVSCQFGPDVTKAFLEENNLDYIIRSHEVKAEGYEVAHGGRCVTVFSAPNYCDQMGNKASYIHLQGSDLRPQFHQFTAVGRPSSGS
# INS1 = assay: INS-1E survival protection against cytokine death – cell-based, luminescence, retest, dose response (AID 449756); format: functional; settings: Rattus norvegicus;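 further: cell death triggered by IL-1 beta plus TNF-alpha plus IFN-gamma mixture; protective hits raise ATP signal compared with cytokine alone wells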
# [5] = test system: Streptococcus sp. 'group A'; assay: Streptococcus pyogenes SK(-)GAS viability under kanamycin – luminescence, BacTiterGlo, confirmation, counter-screen for streptokinase expression inhibitor project, dose response (AID 1900); format: functional, organism-based
# Streptococcus = assay: GAS UMAA2166 growth inhibition – luminescence, BacTiterGlo, counter-screen for streptokinase expression inhibitor project, dose response (AID 1915); format: functional, organism-based;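 further: potency for reduction of bacterial viability or growth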
# Aspartyl aminopeptidase = Aspartyl aminopeptidase (Plasmodium falciparum 3D7, UniProt Q8I2J3)
# Procathepsin L = Procathepsin L (Homo sapiens, UniProt P07711)
# [6] = target: T2, Rac GTPase-activating protein 1 (Homo sapiens, UniProt Q9H0H5); assay: blockers of MgcRacGAP-driven Rac1 GTP hydrolysis – biochemical, ADP Hunter fluorescence, primary and confirmatory, confirmation (AID 624330); format: functional
# T2 sequence (Q9H0H5 whole entry): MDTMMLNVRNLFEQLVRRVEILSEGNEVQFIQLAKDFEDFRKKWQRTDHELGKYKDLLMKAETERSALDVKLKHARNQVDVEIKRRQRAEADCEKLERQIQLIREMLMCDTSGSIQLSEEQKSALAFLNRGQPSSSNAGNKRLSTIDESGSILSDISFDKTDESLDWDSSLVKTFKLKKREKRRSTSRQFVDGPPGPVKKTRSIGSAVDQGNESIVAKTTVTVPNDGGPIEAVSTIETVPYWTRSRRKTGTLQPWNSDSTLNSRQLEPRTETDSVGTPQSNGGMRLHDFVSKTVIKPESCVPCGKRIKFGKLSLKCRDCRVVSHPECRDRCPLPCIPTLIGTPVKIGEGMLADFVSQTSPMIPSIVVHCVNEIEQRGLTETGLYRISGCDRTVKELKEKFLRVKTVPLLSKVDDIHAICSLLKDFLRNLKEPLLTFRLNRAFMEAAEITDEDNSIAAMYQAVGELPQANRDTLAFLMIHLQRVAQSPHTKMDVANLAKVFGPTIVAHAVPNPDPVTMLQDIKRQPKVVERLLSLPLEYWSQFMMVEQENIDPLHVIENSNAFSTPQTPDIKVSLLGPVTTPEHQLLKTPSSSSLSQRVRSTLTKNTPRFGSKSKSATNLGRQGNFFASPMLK
# [7] = viability of PTEN-deleted HCT116 cells – cell-based, HCT116 PTEN knockout, dose response (AID 1047); format: functional;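 further: HCT116 colon tumor cells with PTEN knocked out; cells exposed to compound for 60 hours before readout; potency for loss of cell viability measured by luminescence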
# [8] = viability of HCT116 lacking mutant beta-catenin – cell-based, human colon tumor, dose response (AID 1045); format: functional;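 further: HCT116 colon tumor cells with beta catenin knocked out; cells exposed to compound for 60 hours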
# [9] = HEK-293T cell viability reduction – luminescence, B-cell screen hits, cytotoxicity control for BCR NF-kB inhibitor project, dose response (AID 489021); format: functional, cell-based;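 further: HEK-293T cells carrying an NF-kB luciferase reporter; cells exposed to compound for about 14 hours before viability readout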
# [10] = target: T3, Heat shock factor protein 1 (Mus musculus, UniProt P38532); assay: enhancement of HSF1-driven luciferase signal – cell-based, NIH3T3, luminescence, dose retest, confirmation (AID 435004); format: functional;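 further: stress induced by proteasome inhibitor MG132 added 30 min after compound; luciferase reporter driven by HSF1 response element in NIH3T3 cells; actives raise luminescence as potentiators of the MG132 stress response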
# T3 sequence (P38532 whole entry): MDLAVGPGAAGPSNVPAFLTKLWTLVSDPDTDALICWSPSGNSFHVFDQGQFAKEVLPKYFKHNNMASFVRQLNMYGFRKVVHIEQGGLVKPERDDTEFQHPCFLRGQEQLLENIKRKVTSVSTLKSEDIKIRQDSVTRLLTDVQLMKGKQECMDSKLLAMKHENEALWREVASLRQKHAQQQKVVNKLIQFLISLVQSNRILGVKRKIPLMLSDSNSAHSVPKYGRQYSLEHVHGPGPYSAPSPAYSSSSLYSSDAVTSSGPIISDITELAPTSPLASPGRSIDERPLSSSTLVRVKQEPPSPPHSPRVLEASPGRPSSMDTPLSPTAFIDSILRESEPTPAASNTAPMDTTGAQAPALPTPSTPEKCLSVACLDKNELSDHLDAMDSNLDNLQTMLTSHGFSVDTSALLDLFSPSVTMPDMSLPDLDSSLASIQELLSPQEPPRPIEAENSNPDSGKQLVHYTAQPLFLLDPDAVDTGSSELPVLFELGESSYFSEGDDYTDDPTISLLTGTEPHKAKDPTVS
# Bcl-2-like protein 10 = target: T4, Bcl-2-like protein 10 (Homo sapiens, UniProt Q9HD36); assay: Concentration-response of Bcl-B inhibitors by biochemical FP with TR3 (AID 1243); format: functional
# T4 sequence (Q9HD36 whole entry): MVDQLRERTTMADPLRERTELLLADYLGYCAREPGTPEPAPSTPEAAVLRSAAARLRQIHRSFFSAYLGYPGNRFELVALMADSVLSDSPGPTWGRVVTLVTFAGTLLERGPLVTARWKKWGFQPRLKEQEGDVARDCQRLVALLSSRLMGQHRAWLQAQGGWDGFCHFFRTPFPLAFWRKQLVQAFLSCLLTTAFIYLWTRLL
# [11] = target: T5, Zinc finger protein mex-5 (Caenorhabditis elegans, UniProt Q9XUB2); assay: potency of MEX-5 RNA-binding blockers – biochemical, C. elegans, fluorescence polarization, dose response (AID 1960)
# T5 sequence (Q9XUB2 whole entry): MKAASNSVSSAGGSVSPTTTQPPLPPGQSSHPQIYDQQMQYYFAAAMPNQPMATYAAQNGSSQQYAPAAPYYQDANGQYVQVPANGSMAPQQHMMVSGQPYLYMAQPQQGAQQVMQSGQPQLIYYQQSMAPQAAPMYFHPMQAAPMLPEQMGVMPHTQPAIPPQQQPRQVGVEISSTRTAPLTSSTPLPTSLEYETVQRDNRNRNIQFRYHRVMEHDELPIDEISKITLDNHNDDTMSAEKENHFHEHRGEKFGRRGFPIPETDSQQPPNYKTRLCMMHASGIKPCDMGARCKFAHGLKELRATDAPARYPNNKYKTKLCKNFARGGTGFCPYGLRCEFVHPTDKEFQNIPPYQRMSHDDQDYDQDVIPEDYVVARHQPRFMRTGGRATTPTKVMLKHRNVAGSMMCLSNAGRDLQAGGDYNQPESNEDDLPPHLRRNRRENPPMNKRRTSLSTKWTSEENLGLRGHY
# cells [12] = format: functional, cell-based
# [13] = target: T6, RNA-binding protein pos-1 (Caenorhabditis elegans, UniProt G5EF15); assay: disruptors of C. elegans POS-1 RNA interaction – biochemical, fluorescence polarization, dose response (AID 1964);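 further: purified POS-1 fused to maltose binding protein made in E. coli; potency of compounds blocking POS-1 binding to fluorescent RNA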
# T6 sequence (G5EF15 whole entry): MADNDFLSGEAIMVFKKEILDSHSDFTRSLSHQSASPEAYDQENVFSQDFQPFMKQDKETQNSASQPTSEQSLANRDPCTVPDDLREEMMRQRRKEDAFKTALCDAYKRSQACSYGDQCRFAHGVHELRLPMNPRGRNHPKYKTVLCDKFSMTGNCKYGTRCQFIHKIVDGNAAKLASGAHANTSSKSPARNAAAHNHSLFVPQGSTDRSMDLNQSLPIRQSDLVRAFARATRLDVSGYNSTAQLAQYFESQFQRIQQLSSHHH
# cells [14] = format: functional, cell-based; remark: listed apart in the source
# Large T antigen = Large T antigen (Simian virus 40, UniProt P03070); format: functional, Betapolyomavirus macacae;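 further: Confirmatory-stage PubChem screen for compounds that inhibit SV40 T antigen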
# [15] = target: FAD-linked sulfhydryl oxidase ALR (Homo sapiens, UniProt P55789); assay: ALR-catalysed DTT oxidation blockers – biochemical, H2O2 detection, luminescence, cherry-pick, dose response (AID 493248)
# NS3 = NS3 (Hepatitis C virus, UniProt A3EZJ3); assay: PubChem AID 2173; parameters: species or system Hepacivirus hominis
# Genome polyprotein = Genome polyprotein (dengue virus type 2, UniProt P29990); assay: flavivirus cap methylation enzyme inhibition – biochemical, confirmation dose response, primary screen (AID 588689); format: functional
# [16] = target: Melanin-concentrating hormone receptor 1 (Homo sapiens, UniProt Q99705); assay: Late-stage fluorescence-based counterscreen for antagonists of the G-protein coupled receptor 7 (GPR7): cell-based dose response assay to identify antagonists of the melanin-concentrating hormone receptor 1 (MCHR1). [Related pubchem assays (depositor defined):AID1861, AID1880, AID1952, AID2148, AID2251, AID2257, AID485339]; format: functional;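 further: stimulated with 30 nM MCH peptide agonist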
# [17] = target: Voltage-gated N-type calcium channel alpha-1B subunit/Amyloid beta A4 precursor protein-binding family A member 1 (Homo sapiens, UniProt Q00975+Q02410); assay: disruptors of Mint-PDZ/N-type channel peptide interaction – biochemical, HTRF, set 2, SAR follow-up (AID 434980); format: functional
# Nonstructural protein 1 = Nonstructural protein 1 (Influenza A virus, UniProt Q194T2); format: functional, Influenza A virus (A/California/07/2009(H1N1))
# Streptokinase A = target: T7, Streptokinase A (Streptococcus pyogenes serotype M1, UniProt P10520); assay: viability-normalized secreted streptokinase activity reduction – plasminogen activation absorbance, OD405, dose response (AID 1914); format: functional, Streptococcus pyogenes M1 GAS;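 further: secreted streptokinase activity via plasminogen activation per viability signal from cell pellet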
# T7 sequence (P10520 whole entry): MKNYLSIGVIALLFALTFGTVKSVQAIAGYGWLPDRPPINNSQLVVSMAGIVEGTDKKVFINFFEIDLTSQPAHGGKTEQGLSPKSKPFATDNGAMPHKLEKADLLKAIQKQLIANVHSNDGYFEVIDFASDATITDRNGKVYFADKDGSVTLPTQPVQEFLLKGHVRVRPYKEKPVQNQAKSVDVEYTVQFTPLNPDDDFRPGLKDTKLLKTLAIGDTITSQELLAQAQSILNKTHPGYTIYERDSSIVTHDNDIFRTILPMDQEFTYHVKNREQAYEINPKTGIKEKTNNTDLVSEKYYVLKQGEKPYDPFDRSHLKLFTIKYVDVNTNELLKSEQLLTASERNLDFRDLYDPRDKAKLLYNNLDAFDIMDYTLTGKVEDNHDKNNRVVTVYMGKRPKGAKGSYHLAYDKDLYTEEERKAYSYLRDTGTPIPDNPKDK
# Sequence of NS3 (A3EZJ3 whole entry): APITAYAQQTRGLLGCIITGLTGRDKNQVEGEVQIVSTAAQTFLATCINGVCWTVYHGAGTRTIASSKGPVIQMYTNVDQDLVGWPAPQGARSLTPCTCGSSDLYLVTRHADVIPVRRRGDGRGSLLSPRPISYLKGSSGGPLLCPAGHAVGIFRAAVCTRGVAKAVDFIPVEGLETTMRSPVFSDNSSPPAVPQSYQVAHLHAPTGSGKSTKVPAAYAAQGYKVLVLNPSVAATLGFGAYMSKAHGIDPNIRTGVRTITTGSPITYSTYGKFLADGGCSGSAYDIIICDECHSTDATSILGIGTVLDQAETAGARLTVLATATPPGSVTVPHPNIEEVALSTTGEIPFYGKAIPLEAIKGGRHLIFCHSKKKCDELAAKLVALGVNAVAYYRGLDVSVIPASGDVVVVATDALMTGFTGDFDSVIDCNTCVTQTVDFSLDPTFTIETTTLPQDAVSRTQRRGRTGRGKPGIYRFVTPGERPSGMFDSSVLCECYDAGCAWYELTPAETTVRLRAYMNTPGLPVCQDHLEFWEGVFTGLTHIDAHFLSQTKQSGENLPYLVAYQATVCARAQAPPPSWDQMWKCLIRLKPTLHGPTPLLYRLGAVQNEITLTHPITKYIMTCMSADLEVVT
# Sequence of Serine/threonine-protein phosphatase PP1-alpha catalytic subunit (P62136 whole entry): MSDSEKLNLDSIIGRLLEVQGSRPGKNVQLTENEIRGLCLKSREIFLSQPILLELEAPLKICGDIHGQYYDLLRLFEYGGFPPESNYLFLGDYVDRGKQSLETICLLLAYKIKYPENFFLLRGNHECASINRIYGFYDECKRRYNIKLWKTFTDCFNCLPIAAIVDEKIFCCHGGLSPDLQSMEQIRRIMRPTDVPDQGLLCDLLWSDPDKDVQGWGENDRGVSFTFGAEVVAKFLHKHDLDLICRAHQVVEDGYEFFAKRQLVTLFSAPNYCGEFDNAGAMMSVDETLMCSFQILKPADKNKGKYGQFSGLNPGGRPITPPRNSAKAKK
# Sequence of Aspartyl aminopeptidase (Q8I2J3 whole entry): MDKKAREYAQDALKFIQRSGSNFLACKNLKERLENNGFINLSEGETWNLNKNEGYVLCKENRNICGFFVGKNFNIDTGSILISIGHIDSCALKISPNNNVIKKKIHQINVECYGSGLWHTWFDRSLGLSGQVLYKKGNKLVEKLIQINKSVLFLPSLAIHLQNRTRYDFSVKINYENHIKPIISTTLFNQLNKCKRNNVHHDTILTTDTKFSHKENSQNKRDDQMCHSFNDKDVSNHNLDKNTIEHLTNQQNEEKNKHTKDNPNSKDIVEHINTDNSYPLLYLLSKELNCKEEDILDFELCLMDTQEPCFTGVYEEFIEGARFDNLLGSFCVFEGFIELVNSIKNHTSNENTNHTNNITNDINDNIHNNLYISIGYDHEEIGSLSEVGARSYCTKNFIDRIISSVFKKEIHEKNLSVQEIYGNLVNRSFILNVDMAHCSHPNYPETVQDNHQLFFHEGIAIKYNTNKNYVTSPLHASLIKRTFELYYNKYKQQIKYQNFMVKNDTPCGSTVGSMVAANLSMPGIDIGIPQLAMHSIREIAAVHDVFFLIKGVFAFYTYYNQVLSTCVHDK
# Sequence of Procathepsin L (P07711 whole entry): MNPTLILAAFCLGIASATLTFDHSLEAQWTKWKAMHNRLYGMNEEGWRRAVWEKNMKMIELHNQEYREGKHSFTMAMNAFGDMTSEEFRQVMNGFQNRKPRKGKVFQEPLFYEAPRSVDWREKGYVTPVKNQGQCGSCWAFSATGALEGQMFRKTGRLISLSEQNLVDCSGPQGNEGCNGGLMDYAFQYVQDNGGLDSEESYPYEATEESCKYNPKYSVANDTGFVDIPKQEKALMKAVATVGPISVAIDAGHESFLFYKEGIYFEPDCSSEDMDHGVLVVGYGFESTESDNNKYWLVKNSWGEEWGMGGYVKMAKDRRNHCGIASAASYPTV
# Sequence of Nonstructural protein 1 (Q194T2 whole entry): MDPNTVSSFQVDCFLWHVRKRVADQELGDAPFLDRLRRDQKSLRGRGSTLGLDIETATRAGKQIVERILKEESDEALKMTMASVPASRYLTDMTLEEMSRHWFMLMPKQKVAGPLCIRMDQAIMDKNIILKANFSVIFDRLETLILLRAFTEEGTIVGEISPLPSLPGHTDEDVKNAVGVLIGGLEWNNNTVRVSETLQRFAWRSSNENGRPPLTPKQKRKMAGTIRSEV
# Sequence of FAD-linked sulfhydryl oxidase ALR (P55789 whole entry): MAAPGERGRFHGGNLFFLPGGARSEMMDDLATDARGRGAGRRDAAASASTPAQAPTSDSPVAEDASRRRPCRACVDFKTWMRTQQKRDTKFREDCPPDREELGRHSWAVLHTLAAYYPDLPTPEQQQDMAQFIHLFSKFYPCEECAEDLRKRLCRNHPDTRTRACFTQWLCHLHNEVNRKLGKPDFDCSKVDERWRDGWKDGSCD
# Sequence of Large T antigen (P03070 whole entry): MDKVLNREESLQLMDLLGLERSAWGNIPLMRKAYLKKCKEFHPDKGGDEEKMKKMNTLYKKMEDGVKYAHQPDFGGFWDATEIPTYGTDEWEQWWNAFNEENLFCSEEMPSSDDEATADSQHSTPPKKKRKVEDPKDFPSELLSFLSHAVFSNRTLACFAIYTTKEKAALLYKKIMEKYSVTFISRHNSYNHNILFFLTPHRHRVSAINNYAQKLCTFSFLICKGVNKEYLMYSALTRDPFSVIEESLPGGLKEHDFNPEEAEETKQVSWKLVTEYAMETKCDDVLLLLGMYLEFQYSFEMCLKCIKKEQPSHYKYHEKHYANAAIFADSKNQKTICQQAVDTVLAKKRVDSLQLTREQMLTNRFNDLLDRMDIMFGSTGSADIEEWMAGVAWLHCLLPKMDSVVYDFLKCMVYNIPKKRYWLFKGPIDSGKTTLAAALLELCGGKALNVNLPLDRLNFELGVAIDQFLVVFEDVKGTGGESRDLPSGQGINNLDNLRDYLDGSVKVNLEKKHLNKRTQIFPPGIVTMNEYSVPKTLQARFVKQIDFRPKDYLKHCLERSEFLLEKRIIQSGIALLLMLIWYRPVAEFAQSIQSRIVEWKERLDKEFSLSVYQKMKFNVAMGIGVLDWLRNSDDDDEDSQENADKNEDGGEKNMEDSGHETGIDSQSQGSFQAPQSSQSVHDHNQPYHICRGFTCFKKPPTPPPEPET
# Sequence of Melanin-concentrating hormone receptor 1 (Q99705 whole entry): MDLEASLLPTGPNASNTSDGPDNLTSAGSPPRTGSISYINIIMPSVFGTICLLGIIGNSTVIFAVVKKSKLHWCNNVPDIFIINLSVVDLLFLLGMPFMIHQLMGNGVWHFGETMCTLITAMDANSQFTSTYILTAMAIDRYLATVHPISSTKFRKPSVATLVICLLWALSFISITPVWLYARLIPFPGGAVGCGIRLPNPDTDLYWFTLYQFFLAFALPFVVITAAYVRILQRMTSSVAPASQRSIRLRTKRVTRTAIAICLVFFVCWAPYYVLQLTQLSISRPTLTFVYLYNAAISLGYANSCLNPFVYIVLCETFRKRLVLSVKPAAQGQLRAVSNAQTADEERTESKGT
# Sequence of Genome polyprotein (P29990 2492-3391 limits assumed): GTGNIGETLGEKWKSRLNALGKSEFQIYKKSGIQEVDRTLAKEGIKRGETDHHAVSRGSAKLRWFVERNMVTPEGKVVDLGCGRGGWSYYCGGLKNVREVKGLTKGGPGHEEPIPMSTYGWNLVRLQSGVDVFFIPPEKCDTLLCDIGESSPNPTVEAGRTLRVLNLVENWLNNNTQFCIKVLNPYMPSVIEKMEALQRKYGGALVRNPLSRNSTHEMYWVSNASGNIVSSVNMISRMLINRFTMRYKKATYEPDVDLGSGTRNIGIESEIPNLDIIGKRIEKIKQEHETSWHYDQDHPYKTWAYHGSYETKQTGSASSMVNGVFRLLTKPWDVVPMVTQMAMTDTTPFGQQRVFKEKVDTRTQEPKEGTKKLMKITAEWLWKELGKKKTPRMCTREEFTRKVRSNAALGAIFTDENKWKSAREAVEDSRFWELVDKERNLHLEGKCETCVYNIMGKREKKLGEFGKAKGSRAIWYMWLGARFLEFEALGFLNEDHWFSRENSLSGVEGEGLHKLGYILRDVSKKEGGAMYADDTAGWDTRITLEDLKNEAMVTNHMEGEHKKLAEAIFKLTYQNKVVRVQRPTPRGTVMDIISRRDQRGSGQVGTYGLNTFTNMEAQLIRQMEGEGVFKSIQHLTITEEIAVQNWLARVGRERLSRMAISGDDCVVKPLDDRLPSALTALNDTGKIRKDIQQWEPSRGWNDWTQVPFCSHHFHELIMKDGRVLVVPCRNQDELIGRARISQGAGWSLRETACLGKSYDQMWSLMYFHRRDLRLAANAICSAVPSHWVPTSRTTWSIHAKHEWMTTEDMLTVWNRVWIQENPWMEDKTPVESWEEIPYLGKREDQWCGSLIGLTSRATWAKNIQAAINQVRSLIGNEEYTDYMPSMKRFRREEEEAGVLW
structure (smiles),measurement,setting,value
CCOC(=O)c1cnc(-n2nc(C)cc2C)nc1NC(C)c1ccccc1 (stereo not given),IC50,[1],5.88 µM (active)
same,EC50,[2],1.46 µM (active)
same,EC50,[3],> 60 µM (not active)
same,IC50,[4],> 67 µM (not active)
same,AC50,INS1,4.89 µM (active)
same,EC50,[5],5.04 µM (active)
same,EC50,Streptococcus,5.89 µM (active)
O=C(/C=C/c1ccc(O)c(O)c1)NC(=O)c1ccccc1O,IC50,Aspartyl aminopeptidase,1.47 µM (active)
same,IC50,Procathepsin L,> 59.6 µM (not active)
same,IC50,[6],20.2 µM (active)
COc1ccc2[nH]c(Sc3c([N+](=O)[O-])nc(C)n3Cc3ccccc3)nc2c1,EC50,[7],9.43 µM (active)
same,EC50,[8],8.94 µM (active)
same,IC50,[9],> 80 µM (inactive)
same,EC50,[10],8.34 µM (active)
COc1cc(N)ccc1-n1c(C)ccc1C,EC50,Bcl-2-like protein 10,32.9 µM (active)
Oc1ccc(-c2cn3ccccc3n2)cc1O,EC50,[11],13.6 µM (active)
same,EC50,cells [12],> 350 µM (not active)
same,EC50,[13],> 300 µM (not active)
same,EC50,cells [14],25.3 µM (active)
same,IC50,Aspartyl aminopeptidase,2.56 µM (active)
same,IC50,Procathepsin L,> 59.6 µM (not active)
same,IC50,Large T antigen,5.28 µM (active)
same,AC50,[15],1.32 µM (active)
Cc1cc(N2C(=O)C(O)=C(C(=O)c3ccco3)C2c2cccc(Oc3ccccc3)c2)no1 (stereo not given),IC50,NS3,2.64 µM (active)
same,IC50,Genome polyprotein,64.6 µM (active)
Clc1ccc(-n2nnnc2-c2cnc(-c3ccccn3)nc2-c2cccs2)cc1,IC50,[1],4.64 µM (active)
same,IC50,[4],> 67 µM (not active)
Cc1ccccc1CN1CCCCC1C(=O)N1CCN(c2ccc([N+](=O)[O-])cc2)CC1 (stereo not given),IC50,[16],5.8 µM (active)
CC(C)(C)CCNC(=O)c1cc(-c2ccco2)nc2ccccc12,IC50,[17],> 56.8 µM (inactive)
CC1=C(C#N)c2nc(N)c(C#N)c(C)c2/C1=C/c1ccc(-c2ccc(C(=O)O)c(Cl)c2)o1,EC50,Bcl-2-like protein 10,1.65 µM (active)
COc1ccc(/C=N\NC(=O)c2cc(O)c(O)c(O)c2)cc1COc1ccc(C(=O)OCC(C)C)cc1,IC50,Nonstructural protein 1,78.6 µM (active)
same,IC50,NS3,4.44 µM (active)
same,EC50,Streptokinase A,> 150 µM (not active)
same,EC50,[5],6.26 µM (active)
same,EC50,Streptococcus,6.69 µM (active)
